Test results: ChEMBL document CHEMBL6134889, “ByeTAC: Bypassing E-Ligase-Targeting Chimeras for Direct Proteasome Degradation” (J Med Chem, 2025)
One block for each compound: values may come before it. The source made the active and inactive calls. The rule behind the calls is not given here.

Key:
[1] = target: T1, Proteasomal ubiquitin receptor ADRM1/Bromodomain-containing protein 4 (Homo sapiens, UniProt O60885+Q16186); assay: BYETAC activity at 26S proteasome subunit Rpn13/BRD4 in human U87 cells assessed as induction of BRD4 degradation by measuring remaining activity at 10 nM incubated for 18 hrs by Western blot analysis (reference value: 100 %); format: cell-based
[2] = target: Proteasomal ubiquitin receptor ADRM1/Bromodomain-containing protein 2 (Homo sapiens) (UniProt P25440+Q16186); assay: BYETAC activity at 26S proteasome subunit Rpn13/BRD2 in human Ramos cells assessed as induction of BRD2 degradation at 100 nM incubated for 18 hrs by Western blot analysis; format: cell-based
[3] = target: T1, Proteasomal ubiquitin receptor ADRM1/Bromodomain-containing protein 4; assay: BYETAC activity at 26S proteasome subunit Rpn13/BRD4 in human Ramos cells assessed as induction of BRD4 degradation by measuring remaining activity at 100 nM incubated for 18 hrs by Western blot analysis (reference value: 100 %); format: cell-based
[4] = target: T1, Proteasomal ubiquitin receptor ADRM1/Bromodomain-containing protein 4; assay: BYETAC activity at 26S proteasome subunit Rpn13/BRD4 in human Raji cells assessed as induction of BRD4 degradation by measuring remaining activity at 10 nM incubated for 18 hrs by Western blot analysis (reference value: 100 %); format: cell-based
[5] = target: T1, Proteasomal ubiquitin receptor ADRM1/Bromodomain-containing protein 4; assay: BYETAC activity at 26S proteasome subunit Rpn13/BRD4 in human Ramos cells assessed as induction of BRD4 degradation by measuring remaining activity at 500 nM incubated for 18 hrs by Western blot analysis (reference value: 100 %); format: cell-based
[6] = target: T1, Proteasomal ubiquitin receptor ADRM1/Bromodomain-containing protein 4; assay: BYETAC activity at 26S proteasome subunit Rpn13/BRD4 in human Ramos cells assessed as induction of BRD4 degradation by measuring remaining activity at 10 nM incubated for 18 hrs by Western blot analysis (reference value: 100 %); format: cell-based
[7] = target: T1, Proteasomal ubiquitin receptor ADRM1/Bromodomain-containing protein 4; assay: BYETAC activity at 26S proteasome subunit Rpn13/BRD4 in human Raji cells assessed as induction of BRD4 degradation by measuring remaining activity at 500 nM incubated for 18 hrs by Western blot analysis (reference value: 100 %); format: cell-based
[8] = target: Proteasomal ubiquitin receptor ADRM1/Bromodomain-containing protein 3 (Homo sapiens) (UniProt Q15059+Q16186); assay: BYETAC activity at 26S proteasome subunit Rpn13/BRD3 in human Ramos cells assessed as induction of BRD3 degradation at 100 nM incubated for 18 hrs by Western blot analysis; format: cell-based
Ramos = assay: Antiproliferative activity against human Ramos cells assessed as reduction in cell viability incubated for 48 hrs; format: functional, cell-based
[9] = target: T1, Proteasomal ubiquitin receptor ADRM1/Bromodomain-containing protein 4; assay: BYETAC activity at 26S proteasome subunit Rpn13/BRD4 in human U87 cells assessed as induction of BRD4 degradation at 500 nM measured up to 72 hrs by Western blot analysis; format: cell-based
[10] = target: Proteasomal ubiquitin receptor ADRM1 (Homo sapiens) (UniProt Q16186); assay: Induction of Rpn-13 stabilization in human Ramos cells assessed as increase in Rpn-13 level at 5 uM incubated for 3 hrs by co-immunoprecipitation analysis; format: cell-based
[11] = target: T1, Proteasomal ubiquitin receptor ADRM1/Bromodomain-containing protein 4; assay: Binding affinity to 26S proteasome subunit Rpn13/BRD4 in human Ramos cells assessed as ternary complex formation at 5 uM incubated for 3 hrs by co-immunoprecipitation analysis; format: cell-based
[12] = target: T1, Proteasomal ubiquitin receptor ADRM1/Bromodomain-containing protein 4; assay: BYETAC activity at 26S proteasome subunit Rpn13/BRD4 in human U87 cells assessed as induction of BRD4 degradation by measuring remaining activity at 100 nM incubated for 18 hrs by Western blot analysis (reference value: 100 %); format: cell-based
[13] = target: T1, Proteasomal ubiquitin receptor ADRM1/Bromodomain-containing protein 4; assay: BYETAC activity at 26S proteasome subunit Rpn13/BRD4 in human Raji cells assessed as induction of BRD4 degradation by measuring remaining activity at 100 nM incubated for 18 hrs by Western blot analysis (reference value: 100 %); format: cell-based
[14] = target: T1, Proteasomal ubiquitin receptor ADRM1/Bromodomain-containing protein 4; assay: BYETAC activity at 26S proteasome subunit Rpn13/BRD4 in human Ramos cells assessed as induction of BRD4 degradation at 100 nM incubated for 18 hrs in presence of MG132 by Western blot analysis; format: cell-based
[15] = target: T1, Proteasomal ubiquitin receptor ADRM1/Bromodomain-containing protein 4; assay: Induction of BRD4 degradation in human U87 cells transfected with Rpn-13 siRNA at 100 nM incubated for 18 hrs by Western blot analysis; format: cell-based
[16] = target: T1, Proteasomal ubiquitin receptor ADRM1/Bromodomain-containing protein 4; assay: BYETAC activity at 26S proteasome subunit Rpn13/BRD4 in human U87 cells assessed as induction of BRD4 degradation by measuring remaining activity at 500 nM incubated for 18 hrs by Western blot analysis (reference value: 100 %); format: cell-based
[17] = target: T1, Proteasomal ubiquitin receptor ADRM1/Bromodomain-containing protein 4; assay: BYETAC activity at 26S proteasome subunit Rpn13/BRD4 in human Ramos cells assessed as induction of BRD4 degradation at 500 nM preincubated with JQ1 for 1 hrs followed by compound addition and measured after 18 hrs by competitive Western blot analysis; format: cell-based
[18] = target: T1, Proteasomal ubiquitin receptor ADRM1/Bromodomain-containing protein 4; assay: BYETAC activity at 26S proteasome subunit Rpn13/BRD4 in human Ramos cells assessed as induction of BRD4 degradation incubated for 18 hrs by Western blot analysis; format: cell-based
[19] = target: T1, Proteasomal ubiquitin receptor ADRM1/Bromodomain-containing protein 4; assay: BYETAC activity at 26S proteasome subunit Rpn13/BRD4 in human Ramos cells assessed as induction of BRD4 degradation by measuring remaining activity at 100 nM incubated for 18 hrs in presence of TAK-243 by Western blot analysis relative to control; format: cell-based
[20] = target: T1, Proteasomal ubiquitin receptor ADRM1/Bromodomain-containing protein 4; assay: BYETAC activity at 26S proteasome subunit Rpn13/BRD4 in human Ramos cells assessed as induction of BRD4 degradation at 500 nM preincubated with TCL1 for 1 hrs followed by compound addition and measured after 18 hrs by competitive Western blot analysis; format: cell-based
[21] = target: T2, Proteasomal ubiquitin receptor ADRM1/Tyrosine-protein kinase BTK (Homo sapiens) (UniProt Q06187+Q16186); assay: BYETAC activity at 26S proteasome subunit Rpn13/BTK in human Ramos cells assessed as induction of BTK degradation at 1 to 25 uM incubated for 18 hrs by Western blot analysis; format: cell-based; conditions: dose 1-25 µM
[22] = target: Proteasomal ubiquitin receptor ADRM1/Glycogen synthase kinase-3 beta (Homo sapiens) (UniProt P49841+Q16186); assay: Halo-BYETAC activity at 26S proteasome subunit Rpn13/Halo-tagged GSK3beta (unknown origin) transfected in human U87 cells assessed as induction of Halo-tagged GSK3beta degradation at 1 to 10 uM incubated for 18 hrs by Western blot analysis; format: cell-based; conditions: dose 1-10 µM
[23] = target: T2, Proteasomal ubiquitin receptor ADRM1/Tyrosine-protein kinase BTK (Homo sapiens); assay: BYETAC activity at 26S proteasome subunit Rpn13/BTK in human Ramos cells assessed as induction of BTK degradation by measuring remaining activity at 0.5 uM incubated for 18 hrs by Western blot analysis (reference value: 100 %); format: cell-based
[24] = target: T2, Proteasomal ubiquitin receptor ADRM1/Tyrosine-protein kinase BTK (Homo sapiens); assay: BYETAC activity at 26S proteasome subunit Rpn13/BTK in human Ramos cells assessed as induction of BTK degradation by measuring remaining activity at 1 uM incubated for 18 hrs by Western blot analysis (reference value: 100 %); format: cell-based
[25] = target: T2, Proteasomal ubiquitin receptor ADRM1/Tyrosine-protein kinase BTK (Homo sapiens); assay: BYETAC activity at 26S proteasome subunit Rpn13/BTK in human Ramos cells assessed as induction of BTK degradation by measuring remaining activity at 25 uM incubated for 18 hrs by Western blot analysis (reference value: 100 %); format: cell-based
[26] = target: T2, Proteasomal ubiquitin receptor ADRM1/Tyrosine-protein kinase BTK (Homo sapiens); assay: BYETAC activity at 26S proteasome subunit Rpn13/BTK in human Ramos cells assessed as induction of BTK degradation by measuring remaining activity at 10 uM incubated for 18 hrs by Western blot analysis (reference value: 100 %); format: cell-based
[27] = target: T1, Proteasomal ubiquitin receptor ADRM1/Bromodomain-containing protein 4; assay: Induction of BRD4 degradation in human Ramos cells at 10 to 1000 nM incubated for 18 hrs by Western blot analysis; format: cell-based; conditions: dose 10-1000 nM

- Activity [1]: 66%
- Activity [2]: Active
- Activity [3]: 55%
- Activity [4]: 95%
- Activity [5]: 33%
- Activity [6]: 91%
- Activity [7]: 62%
- Activity [8]: Active
- IC50 (Ramos): 30.5 nM
- Activity [9]: Active
- Activity [10]: Active
- Activity [11]: Active
- Activity [12]: 36%
- Activity [13]: 72%
- Activity [14]: inactive
- Activity [15]: inactive
- Activity [16]: 20%
- Activity [17]: inactive
- DC50 [18]: ~500 nM
- Activity [19]: 40%
- Activity [20]: inactive
SMILES: Cc1sc2c(c1C)C(c1ccc(Cl)cc1)=N[C@@H](CC(=O)NCCOCCOCCOCCOCCNC(=O)CC1Sc3nnc(Cc4ccc(Br)cc4)n3N=C1c1ccc(Cl)cc1)c1nnc(C)n1-2 (stereo not given in full)

- Activity [3]: 100%
- Activity [5]: 80%
- Activity [6]: 107%
SMILES: Cc1sc2c(c1C)C(c1ccc(Cl)cc1)=N[C@@H](CC(=O)NCCOCCOCCOCCOCCOCCOCCOCCNC(=O)CC1Sc3nnc(Cc4ccc(Br)cc4)n3N=C1c1ccc(Cl)cc1)c1nnc(C)n1-2 (stereo not given in full)

- Activity [3]: 87%
- Activity [5]: 60%
- Activity [6]: 92%
SMILES: Cc1sc2c(c1C)C(c1ccc(Cl)cc1)=N[C@@H](CC(=O)NCCOCCOCCOCCOCCOCCNC(=O)CC1Sc3nnc(Cc4ccc(Br)cc4)n3N=C1c1ccc(Cl)cc1)c1nnc(C)n1-2 (stereo not given in full)

Second part, the compound before the results:

SMILES: Cc1sc2c(c1C)C(c1ccc(Cl)cc1)=N[C@@H](CC(=O)Nc1ccc(OCCOCCOCCOCCNc3cccc4c3C(=O)N(C3CCC(=O)NC3=O)C4=O)cc1)c1nnc(C)n1-2 (stereo not given in full)
- IC50 (Ramos): 1.9 nM

SMILES: Nc1ncnc2c1c(-c1ccc(Oc3ccccc3)cc1)nn2[C@H]1CCCN(C(=O)COCCOCCOCCOCCNC(=O)CC2Sc3nnc(Cc4ccc(Br)cc4)n3N=C2c2ccc(Cl)cc2)C1 (stereo not given in full)
- Activity [21]: inactive

SMILES: ClCCCCCCNCCOCCOCCNCC1Sc2nnc(Cc3ccc(Br)cc3)n2N=C1c1ccc(Cl)cc1 (stereo not given)
- Activity [22]: Active

SMILES: Nc1ncnc2c1c(-c1ccc(Oc3ccccc3)cc1)nn2[C@H]1CCCN(C(=O)CCC(=O)NCCOCCOCCOCCOCCOCCOCCOCCOCCNC(=O)CC2Sc3nnc(Cc4ccc(Br)cc4)n3N=C2c2ccc(Cl)cc2)C1 (stereo not given in full)
- Activity [23]: 97%
- Activity [24]: 72%
- Activity [25]: 6%
- Activity [26]: 3%

SMILES: Cc1sc2c(c1C)C(c1ccc(Cl)cc1)=N[C@@H](CC(=O)NCCOCCOCCOCCNC(=O)CC1Sc3nnc(Cc4ccc(Br)cc4)n3N=C1c1ccc(Cl)cc1)c1nnc(C)n1-2 (stereo not given in full)
- Activity [1]: 83%
- Activity [3]: 69%
- Activity [4]: 78%
- Activity [5]: 35%
- Activity [6]: 111%
- Activity [7]: 68%
- Activity [12]: 53%
- Activity [13]: 77%
- Activity [16]: 36%
- DC50 [18]: ~500 nM

SMILES: O=C(O)CC1Sc2nnc(Cc3ccc(Br)cc3)n2N=C1c1ccc(Cl)cc1 (stereo not given)
- Activity [27]: inactive
